The record followed here is the supplement of paper PMC10307832.

Assay in all cases: relative viability (nuclei count vs DMSO), 5 days (fraction); higher = more cells survive
Compound in the assay “Elesclomol + Palbociclib”: CN(NC(=O)CC(=O)NN(C)C(=S)c1ccccc1)C(=S)c1ccccc1 [Elesclomol] + CC(=O)c1c(C)c2cnc(Nc3ccc(N4CCNCC4)cn3)nc2n(C2CCCC2)c1=O [Palbociclib] (partner 0.5 µM)
The procedure, abridged:
(§1)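 Lung cancer cell lines in 1536-well plates were dosed by pin tool the day after seeding, either with one drug alone or with a fixed anchor-drug dose plus five library-drug doses (not always all listed) in √10 steps. After 5 days, cells were fixed and their nuclei stained in one step (final 0.05% Triton X-100, 1% formaldehyde, 1 ug/ml Hoechst), then counted on 4× images. Relative viability is the nuclei count in treated wells divided by that in vehicle wells. Values are medians of duplicate plates.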

Compound in the assay “Elesclomol + Luminespib”: CN(NC(=O)CC(=O)NN(C)C(=S)c1ccccc1)C(=S)c1ccccc1 [Elesclomol] + CCNC(=O)c1noc(-c2cc(C(C)C)c(O)cc2O)c1-c1ccc(CN2CCOCC2)cc1 [Luminespib] (partner 0.01 µM)
In a few lines: as §1

Compound in the assay “Elesclomol + Lapatinib”: CN(NC(=O)CC(=O)NN(C)C(=S)c1ccccc1)C(=S)c1ccccc1 [Elesclomol] + CS(=O)(=O)CCNCc1ccc(-c2ccc3ncnc(Nc4ccc(OCc5cccc(F)c5)c(Cl)c4)c3c2)o1 [Lapatinib] (partner 2 µM)
The procedure, abridged:
as §1

Compound in the assay “Elesclomol + Trametinib”: CN(NC(=O)CC(=O)NN(C)C(=S)c1ccccc1)C(=S)c1ccccc1 [Elesclomol] + CC(=O)Nc1cccc(-n2c(=O)n(C3CC3)c(=O)c3c(Nc4ccc(I)cc4F)n(C)c(=O)c(C)c32)c1 [Trametinib] (partner 0.02 µM)
In a few lines:
as §1

Compound in the assay “Elesclomol + Pictilisib”: CN(NC(=O)CC(=O)NN(C)C(=S)c1ccccc1)C(=S)c1ccccc1 [Elesclomol] + CS(=O)(=O)N1CCN(Cc2cc3nc(-c4cccc5[nH]ncc45)nc(N4CCOCC4)c3s2)CC1 [Pictilisib] (partner 1 µM)
The procedure, abridged: as §1

As for HARA, the relative viability with Elesclomol + Palbociclib (first compound 0.003162 µM) is 0.239; in the assay with Elesclomol + Palbociclib (first compound 0.01 µM), 0.278; with Elesclomol + Palbociclib (first compound 0.03162 µM), 0.284; with Elesclomol + Palbociclib (first compound 0.1 µM), 0.233; with Elesclomol + Luminespib (first compound 0.003162 µM), 0.545; with Elesclomol + Luminespib (first compound 0.01 µM), 0.669. Also, the relative viability with Elesclomol + Luminespib (first compound 0.03162 µM) was found to be 0.1; with Elesclomol + Luminespib (first compound 0.1 µM), 0.0826; with Elesclomol + Lapatinib (first compound 0.003162 µM), 0.679; with Elesclomol + Lapatinib (first compound 0.01 µM), 0.715; with Elesclomol + Lapatinib (first compound 0.03162 µM) it was 0.756; with Elesclomol + Lapatinib (first compound 0.1 µM), 0.186. For the same cell line, the relative viability in the assay with Elesclomol + Trametinib (first compound 0.003162 µM) is 0.704; in the assay with Elesclomol + Trametinib (first compound 0.01 µM), 0.465; in the assay with Elesclomol + Trametinib (first compound 0.03162 µM) it was 0.189; with Elesclomol + Trametinib (first compound 0.1 µM), 0.159; in the assay with Elesclomol + Pictilisib (first compound 0.003162 µM), 0.548; with Elesclomol + Pictilisib (first compound 0.01 µM) it was 0.325. Also, the relative viability in the assay with Elesclomol + Pictilisib (first compound 0.03162 µM) was 0.363; with Elesclomol + Pictilisib (first compound 0.1 µM) it was 0.081.
HCC-15: the relative viability was determined as 0.714 with Elesclomol + Palbociclib (first compound 0.003162 µM); 0.629 with Elesclomol + Palbociclib (first compound 0.01 µM); 0.518 in the assay with Elesclomol + Palbociclib (first compound 0.03162 µM); 0.12 in the assay with Elesclomol + Palbociclib (first compound 0.1 µM); 0.27 in the assay with Elesclomol + Luminespib (first compound 0.003162 µM); 0.194 in the assay with Elesclomol + Luminespib (first compound 0.01 µM). The relative viability was 0.11 with Elesclomol + Luminespib (first compound 0.03162 µM); 0.0457 with Elesclomol + Luminespib (first compound 0.1 µM); 0.869 with Elesclomol + Lapatinib (first compound 0.003162 µM); 0.684 with Elesclomol + Lapatinib (first compound 0.01 µM); 0.574 with Elesclomol + Lapatinib (first compound 0.03162 µM); 0.284 with Elesclomol + Lapatinib (first compound 0.1 µM). In addition, the relative viability with Elesclomol + Trametinib (first compound 0.003162 µM) amounted to 0.351; with Elesclomol + Trametinib (first compound 0.01 µM), 0.42; in the assay with Elesclomol + Trametinib (first compound 0.03162 µM) it was 0.345; in the assay with Elesclomol + Trametinib (first compound 0.1 µM) it was 0.158; in the assay with Elesclomol + Pictilisib (first compound 0.003162 µM), 0.719; with Elesclomol + Pictilisib (first compound 0.01 µM), 0.522. The relative viability came out at 0.523 in the assay with Elesclomol + Pictilisib (first compound 0.03162 µM) and 0.289 with Elesclomol + Pictilisib (first compound 0.1 µM).
Regarding HCC-44, the relative viability with Elesclomol + Palbociclib (first compound 0.003162 µM) turned out to be 0.975; with Elesclomol + Palbociclib (first compound 0.01 µM) it was 0.895; with Elesclomol + Palbociclib (first compound 0.03162 µM), 0.939; in the assay with Elesclomol + Palbociclib (first compound 0.1 µM), 0.952; in the assay with Elesclomol + Luminespib (first compound 0.003162 µM) it was 1.01; in the assay with Elesclomol + Luminespib (first compound 0.01 µM), 0.86. Further, the relative viability came out at 0.213 with Elesclomol + Luminespib (first compound 0.03162 µM); 0.178 with Elesclomol + Luminespib (first compound 0.1 µM); 0.95 in the assay with Elesclomol + Lapatinib (first compound 0.003162 µM); 0.941 with Elesclomol + Lapatinib (first compound 0.01 µM); 1.03 in the assay with Elesclomol + Lapatinib (first compound 0.03162 µM); 0.727 with Elesclomol + Lapatinib (first compound 0.1 µM). Further, the relative viability with Elesclomol + Trametinib (first compound 0.003162 µM) amounted to 1.14; with Elesclomol + Trametinib (first compound 0.01 µM), 1.09; with Elesclomol + Trametinib (first compound 0.03162 µM) it was 1.08; with Elesclomol + Trametinib (first compound 0.1 µM), 1.05; with Elesclomol + Pictilisib (first compound 0.003162 µM), 0.592; with Elesclomol + Pictilisib (first compound 0.01 µM), 0.578. Also, the results for the relative viability in the assay with Elesclomol + Pictilisib (first compound 0.03162 µM) and with Elesclomol + Pictilisib (first compound 0.1 µM) were 0.554 and 0.322, respectively.
As for HCC-78, the relative viability in the assay with Elesclomol + Palbociclib (first compound 0.003162 µM) was determined as 0.493; with Elesclomol + Palbociclib (first compound 0.01 µM) it was 0.377; with Elesclomol + Palbociclib (first compound 0.03162 µM), 0.489; with Elesclomol + Palbociclib (first compound 0.1 µM) it was 0.466; with Elesclomol + Lapatinib (first compound 0.003162 µM) it was 0.704; with Elesclomol + Lapatinib (first compound 0.01 µM), 0.65. Moreover, the relative viability in the assay with Elesclomol + Lapatinib (first compound 0.03162 µM) came to 0.932; in the assay with Elesclomol + Lapatinib (first compound 0.1 µM), 0.798; with Elesclomol + Trametinib (first compound 0.003162 µM), 0.7; with Elesclomol + Trametinib (first compound 0.01 µM), 0.549; with Elesclomol + Trametinib (first compound 0.03162 µM), 0.674; with Elesclomol + Trametinib (first compound 0.1 µM), 0.722. For the same cell line, the relative viability in the assay with Elesclomol + Pictilisib (first compound 0.003162 µM) stood at 0.252; in the assay with Elesclomol + Pictilisib (first compound 0.01 µM), 0.2; in the assay with Elesclomol + Pictilisib (first compound 0.03162 µM), 0.229; with Elesclomol + Pictilisib (first compound 0.1 µM), 0.217.
